US20260176270A1 (Exelixis, Inc., priority 2022, published 2026)
Read-outs that look alike come from different tables or passages of the source.

Columns and labels:
PKMYT1 = target: T1, PKMYT1 (Homo sapiens, UniProt Q99640); assay: ADP-Glo PKMYT1 ATP-depletion assay; conditions: 50 nM PKMYT1, 13.3 nM CDK1, read-out: Biochemical IC50
T1 construct: PKMYT1 (93 kD, full length, N-terminal GST tag from Signal Chem); GST (N); purchased Signal Chem
T1 sequence (Q99640 1-499): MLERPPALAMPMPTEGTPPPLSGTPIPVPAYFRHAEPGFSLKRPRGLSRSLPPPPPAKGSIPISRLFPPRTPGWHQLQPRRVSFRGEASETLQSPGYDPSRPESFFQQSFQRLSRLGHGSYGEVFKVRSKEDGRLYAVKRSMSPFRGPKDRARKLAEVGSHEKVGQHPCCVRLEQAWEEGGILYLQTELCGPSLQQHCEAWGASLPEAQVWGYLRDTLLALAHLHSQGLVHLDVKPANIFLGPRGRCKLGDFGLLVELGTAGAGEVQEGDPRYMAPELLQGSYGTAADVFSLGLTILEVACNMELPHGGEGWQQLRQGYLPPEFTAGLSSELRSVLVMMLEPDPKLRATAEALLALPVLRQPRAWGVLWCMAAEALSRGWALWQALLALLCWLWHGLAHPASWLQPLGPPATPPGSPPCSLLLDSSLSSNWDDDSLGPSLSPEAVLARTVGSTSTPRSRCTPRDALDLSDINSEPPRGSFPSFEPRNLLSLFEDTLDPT
Outline: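 Full-length N-terminal GST-tagged PKMYT1 (50 nM) with GST-CDK1 (13.3 nM) as substrate and 88 µM ATP, in Hepes buffer with MgCl2, MnCl2, DTT and BSA; DMSO <1%. Incubated 120 min at RT. ADP formed was quantified by ADP-Glo luminescence and used to derive biochemical IC50.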

[1] = tested on: phosphorylation of CDK1 at Thr14 in HCC1806 cells; assay: Cell lysate AlphaLISA assay measuring inhibition of phosphorylation of CDK1 Thr14; format: cell-based; conditions: read-out: Cellular IC50
Outline: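 HCC1806 cells seeded overnight, then treated 4 h at 37 °C, 5% CO2 with compounds in DMSO; washed and lysed, lysates frozen overnight at −80 °C. CDK1 Thr14 phosphorylation read by AlphaLISA SureFire Ultra; data normalized to DMSO (0% inhibition) and 3 μM reference compound to give IC50.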

SMILES | IC50 (PKMYT1) [µM] | IC50 ([1]; 4 hours) [µM] | IC50 ([1]; Homo sapiens, HCC1806, 4 h) [µM]
Cc1ccc(O)c(C)c1-c1c(N)c(C(N)=O)cc2cccnc12 (single isomer, unassigned) [Compound 65, (M)-7-Amino-8-(3-hydroxy-2,6-dimethyl-phenyl)quinoline-6-carboxamide] | 0.5 to 1 | ≥ 5 | –
Cc1ccc(O)c(C)c1-c1c(N)c(C(N)=O)cc2cccnc12 (single isomer, unassigned) [Compound 66, (P)-7-amino-8-(3-hydroxy-2,6-dimethyl-phenyl)quinoline-6-carboxamide] | < 0.05 | 0.05 to 0.5 | –
Cc1ccc2[nH]ncc2c1-c1c(N)c(C(N)=O)cc2nccnc12 (single isomer, unassigned) [Compound 78, (P)-7-Amino-8-(5-methyl-1H-indazol-4-yl)quinoxaline-6-carboxamide] | 0.05 to 0.5 | 1 to 5 | –
Cc1ccc2[nH]ncc2c1-c1c(N)c(C(N)=O)cc2nccnc12 (single isomer, unassigned) [Compound 79, (M)-7-amino-8-(5-methyl-1H-indazol-4-yl)quinoxaline-6-carboxamide] | ≥ 5 | ≥ 5 | –
Cc1ccc(O)c(C)c1-c1c(N)c(C(N)=O)cc2nccnc12 (single isomer, unassigned) [Compound 83, (P)-7-Amino-8-(3-hydroxy-2,6-dimethylphenyl)quinoxaline-6-carboxamide] | < 0.05 | 0.05 to 0.5 | –
Cc1ccc(O)c(C)c1-c1c(N)c(C(N)=O)cc2nccnc12 (single isomer, unassigned) [Compound 85, (M)-7-amino-8-(3-hydroxy-2,6-dimethylphenyl)quinoxaline-6-carboxamide] | 1 to 5 | ≥ 5 | –
Cc1c(O)cccc1-c1c(N)c(C(N)=O)cc2nccnc12 (single isomer, unassigned) [Compound 87, (P)-7-Amino-8-(3-hydroxy-2-methylphenyl)quinoxaline-6-carboxamide] | < 0.05 | 0.05 to 0.5 | –
Cc1c(O)cccc1-c1c(N)c(C(N)=O)cc2nccnc12 (single isomer, unassigned) [Compound 89, (M)-7-amino-8-(3-hydroxy-2-methylphenyl)quinoxaline-6-carboxamide] | 1 to 5 | ≥ 5 | –
Cc1nc2cc(C(N)=O)c(N)c(-c3cccc(O)c3C)c2nc1C (single isomer, unassigned) [Compound 92, (P)-7-Amino-8-(3-hydroxy-2-methylphenyl)-2,3-dimethylquinoxaline-6-carboxamide] | < 0.05 | 0.05 to 0.5 | –
Cc1nc2cc(C(N)=O)c(N)c(-c3cccc(O)c3C)c2nc1C (single isomer, unassigned) [Compound 93, (M)-7-Amino-8-(3-hydroxy-2-methylphenyl)-2,3-dimethylquinoxaline-6-carboxamide] | ≥ 5 | ≥ 5 | –
NC(=O)c1cc2nccnc2c(-c2cccc(O)c2Cl)c1N (single isomer, unassigned) [Compound 105, (P)-7-Amino-8-(2-chloro-3-hydroxyphenyl)quinoxaline-6-carboxamide] | < 0.05 | 0.05 to 0.5 | –
NC(=O)c1cc2nccnc2c(-c2cccc(O)c2Cl)c1N (single isomer, unassigned) [Compound 106, (M)-7-amino-8-(2-chloro-3-hydroxyphenyl)quinoxaline-6-carboxamide] | ≥ 5 | ≥ 5 | –
Cc1ccc(O)c(C)c1-c1c(N)c(C(N)=O)cc2nc(C(F)(F)F)cnc12 (single isomer, unassigned) [Compound 111, (M)-7-Amino-8-(3-hydroxy-2,6-dimethylphenyl)-3-(trifluoromethyl)quinoxaline-6-carboxamide] | 1 to 5 | ≥ 5 | –
Cc1ccc(O)c(C)c1-c1c(N)c(C(N)=O)cc2nc(C(F)(F)F)cnc12 (single isomer, unassigned) [Compound 112, (P)-7-Amino-8-(3-hydroxy-2,6-dimethylphenyl)-3-(trifluoromethyl)quinoxaline-6-carboxamide] | < 0.05 | 0.05 to 0.5 | –
Cc1n[nH]c2cccc(-c3c(N)c(C(N)=O)cc4nccnc34)c12 (single isomer, unassigned) [Compound 118, (M)-7-Amino-8-(3-methyl-1H-indazol-4-yl)quinoxaline-6-carboxamide] | 0.05 to 0.5 | 1 to 5 | –
Cc1n[nH]c2cccc(-c3c(N)c(C(N)=O)cc4nccnc34)c12 (single isomer, unassigned) [Compound 119, (P)-7-amino-8-(3-methyl-1H-indazol-4-yl)quinoxaline-6-carboxamide] | ≥ 5 | ≥ 5 | –
Cc1c(O)cccc1-c1c(N)c(C(N)=O)cc2ncc(C(F)(F)F)nc12 (single isomer, unassigned) [Compound 124, (P)-7-Amino-8-(3-hydroxy-2-methylphenyl)-2-(trifluoromethyl)quinoxaline-6-carboxamide] | < 0.05 | 0.05 to 0.5 | –

SMILES | IC50 (PKMYT1) [µM] | IC50 ([1]; 4 hours) [µM] | IC50 ([1]; Homo sapiens, HCC1806, 4 h) [µM]
Cc1c(O)cccc1-c1c(N)c(C(N)=O)cc2ncc(C(F)(F)F)nc12 (single isomer, unassigned) [Compound 125, (M)-7-Amino-8-(3-hydroxy-2-methylphenyl)-2-(trifluoromethyl)-quinoxaline-6-carboxamide] | 1 to 5 | ≥ 5 | –
Cc1ccc(O)c(C)c1-c1c(N)c(C(N)=O)nc2nccnc12 (single isomer, unassigned) [Compound 127, (P)-7-Amino-8-(3-hydroxy-2,6-dimethylphenyl)pyrido[2,3-b]pyrazine-6-carboxamide] | < 0.05 | < 0.05 | –
Cc1ccc(O)c(C)c1-c1c(N)c(C(N)=O)nc2nccnc12 (single isomer, unassigned) [Compound 128, (M)-7-Amino-8-(3-hydroxy-2,6-dimethylphenyl)pyrido[2,3-b]pyrazine-6-carboxamide] | 1 to 5 | ≥ 5 | –
COc1cccc(-c2c(N)c(C(N)=O)nc3cccnc23)c1C [Compound 1, 3-Amino-4-(3-methoxy-2-methylphenyl)-1,5-naphthyridine-2-carboxamide] | ≥ 5 | – | ≥ 5
Cc1c(O)cccc1-c1c(N)c(C(N)=O)nc2cccnc12 [Compound 2, 3-Amino-4-(3-hydroxy-2-methylphenyl)-1,5-naphthyridine-2-carboxamide] | < 0.05 | – | 0.05 to 0.5
Cc1ccc(O)c(C)c1-c1c(N)c(C(N)=O)nc2cccnc12 [Compound 3, 3-Amino-4-(3-hydroxy-2,6-dimethylphenyl)-1,5-naphthyridine-2-carboxamide] | < 0.05 | – | 0.05 to 0.5
Cc1ccc2[nH]ncc2c1-c1c(N)c(C(N)=O)nc2cccnc12 [Compound 6, 3-amino-4-(5-methyl-1H-indazol-4-yl)-1,5-naphthyridine-2-carboxamide] | 0.05 to 0.5 | – | 1 to 5
Cc1c(O)cccc1-c1c(N)c(C(N)=O)nc2nccnc12 [Compound 11, 7-Amino-8-(3-hydroxy-2-methylphenyl)pyrido[2,3-b]pyrazine-6-carboxamide] | < 0.05 | – | 0.05 to 0.5
Cc1ccc(O)c(C)c1-c1cc(C(N)=O)nc2ccccc12 [Compound 12, 4-(3-Hydroxy-2,6-dimethylphenyl)quinoline-2-carboxamide] | 1 to 5 | – | 0.05 to 0.5
Cc1c(O)cccc1-c1cc(C(N)=O)nc2ccccc12 [Compound 13] | 1 to 5 | – | ≥ 5
NC(=O)c1cc(-c2cccc3[nH]ncc23)c2ccccc2n1 [Compound 14, 4-(1H-Indazol-4-yl)quinoline-2-carboxamide] | ≥ 5 | – | ≥ 5
Cc1ccc2[nH]ncc2c1-c1cc(C(N)=O)nc2ccccc12 [Compound 15, 4-(5-Methyl-1H-indazol-4-yl)quinoline-2-carboxamide] | ≥ 5 | – | ≥ 5
Cc1ccc2[nH]ncc2c1-c1c(N)c(C(N)=O)nc2ccccc12 [Compound 17, 3-Amino-4-(5-methyl-1H-indazol-4-yl)quinoline-2-carboxamide] | 0.5 to 1 | – | ≥ 5
Cc1c(O)cccc1-c1c(N)c(C(N)=O)nc2ccccc12 [Compound 18, 3-Amino-4-(3-hydroxy-2-methylphenyl)quinoline-2-carboxamide] | 0.05 to 0.5 | – | 1 to 5
Cc1[nH]nc2cccc(-c3cc(C(N)=O)nc4ccccc34)c12 [Compound 19, 4-(3-Methyl-2H-indazol-4-yl)quinoline-2-carboxamide] | ≥ 5 | – | ≥ 5
Cc1ccc(O)c(C)c1-c1c(N)c(C(N)=O)nc2ccc(F)cc12 [Compound 20, 3-Amino-6-fluoro-4-(3-hydroxy-2,6-dimethylphenyl)quinoline-2-carboxamide] | 0.05 to 0.5 | 1 to 5 | –
